Measurements: patent publication US12629390B2, “Stabilized amorphous calcium carbonate for treatment of neurological, muscular and infertility diseases or conditions” (AMORPHICAL LTD., priority 2016, dated 2026)

Legend:
[1] = system: mice embryos; assay: in vitro embryo development in Quinn's Advantage cleavage media; format: cell-based
Experimental: CBA male mice were bred with BL C57 female mice. The mice were kept on a 12 hours photoperiod schedule with unlimited water and food supply. About 6 to 8 weeks after receiving offspring, each female mouse was injected IP with 5IU of pregnant mare serum gonadotropin (PMSG).
After 48 hours each female mouse was injected IP with 5IU human chorionic gonadotropin (hCG). Male mice proven to be fertile were then put together with the superovulated females. The next morning the female mice were examined for the presence of copulatory plugs. Females that had copulatory plugs were euthanized after 24 hours (approximately 36 hours post-coitus) and embryos at 2 cell stage were retrieved from the oviducts as following: the oviducts were dissected in Quinn's Advantage cleavage media (SAGE, Origio, Denmark) and the embryos were transferred to 20 μL drops with Quinn's Advantage cleavage media (SAGE, Origio, Denmark) overlaid with mineral oil and cultured at 37.0° C. under 5% CO2 and atmospheric oxygen. The collected embryos continued to grow, i.e. in-vitro culture (IVC), until blastocyst/hatching stage. To test the effect of amorphous calcium carbonate, the Quinn's Advantage cleavage media (“cleavage media” hereinafter) was supplemented with different additives, i.e. amorphous calcium carbonate stabilized by polyphosphate (ACC-PP), crystalline calcium carbonate (CCC), polyphosphate (PP), phosphoserine (PS) or sodium carbonate ([…]). All supplements were added as a freshly prepared suspension; the preparation of the ACC supplements were performed under aseptic conditions. Untreated cleavage media (without addition of any additive) was used as a control (identified as Cont Q). The embryos were evaluated every day by microscope observation for a detection of the following stages: 2 cells, compactions stage, blastocysts formation and hatching stage. The fraction (in percent) of the embryos reached each stage was calculated (the number of 2 cells embryos was set as 100%).

[2] = system: spinal cord-dorsal root ganglia (SC-DRG) slices; assay: nerve fiber sprouting from SC-DRG co-cultures; format: cell-based, rat; settings: after 4 days of cultivation, portion of explants (out of 6)
Experimental: Neural and Vascular Reconstruction Gel ([…] Labs proprietary) is composed of two main components: high molecular hyaluronic acid (HA, 3×10^6 Da, BTG, Israel) and laminin (Sigma). […] The gel has the texture of a viscous liquid, it adheres easily and successfully the embedded cells or explants to the plastic or glass substratum, and enabled nerve fiber outgrowth in a 3D pattern. All the experiments were carried out and authorized by the local ethics committee recognized by the Israeli authorities for animal experimentation. Stationary organotypic cultures of dorsal root ganglia (DRG) and spinal cord (SC) as well as cultures of dissociated brain cells were prepared from rat fetuses (15 days of gestation, Lewis inbred, Harlan, Israel). Immediately after dissection, the isolated tissues were cut with a […] tissue chopper into small slices (of 400 μm thickness). In these studies, two tissue culture strategies were used. […] In the second method, the tissue slices were further dissociated with a trypsin-EDTA solution for 30 min, and washed with a culture medium. Subsequently, the dissociated cells were added to a suspension of chitosan powder or gastrolith powder (micro carriers, MCs) and incubated in suspension at 37° C. for 4 days. […] Calcium source were as following: ACC-Etidronic Acid (ACC-ET) (fresh suspension); ACC-Phosphoserine (ACC-PS) (fresh suspension); Gastrolith (dissolved with 0.1 M HCl and then neutralized with NaOH 1M); gastrolith powder; […] The cultures were monitored by daily phase contrast microscopic observations starting from 24 hours after setting the cultures onward. Suspensions of fresh ACC preparations consisted of particles forming a stable suspension. The gastrolith is a natural ACC isolated from crabs, and can be purchased only as a dry powder. In this form, its other characteristic components (such as calcium ions and proteins) are not available to the cells. In order to increase their bioavailability, the gastrolith powder was dissolved in 0.1 M HCl (which mimics the acidity which exists in the stomach) and then neutralized with 1M NaOH. […] The specimens were then incubated with rabbit anti-neurofilament antibodies (NF, Novus Biologicals, 1:500) to visualize the neurite outgrowth. […] Finally, the samples were rinsed again with wash buffer, and mounted with mounting medium (Immco Diagnostic, USA).

[3] = system: mdx mice; assay: serum creatinine kinase (CK) levels in mdx mice given calcium supplements orally; format: in vivo; settings: 12 weeks
Source text: Experimental mice were administrated orally (by feeding or drinking) with control or test items. The control or test items were repeatedly administered daily until the study termination (after 12 weeks).
Animals were administrated with ACC by food or by drinking. Animals were administrated with CCC by food. Control was administrated by feeding. The control or test items were repeatedly administered daily until study termination.
At study termination blood sample was drawn from all animals under light anesthesia with Ketmaine/Xylazine, directly from the retro orbital sinus.
200 μl blood were collected into a yellow-cup tube with clotting activator gel. The tubes were kept at room temperature for at least 30 minutes for clotting and centrifuged at room temperature for 10 minutes at 4000 RPM. The serum samples are stored at 2-4° C. until delivered to CK analysis at A.M.L labs.

[4] = system: healthy skeletal muscle cultures; assay: myotube formation and contraction in healthy skeletal muscle cultures; format: cell-based, rat; settings: added at 1 mM (final Ca2+ 2 mM)
Experimental: Stationary skeletal muscle cultures were prepared from healthy 1 day new born rat (Sprague Dawley, Harlan, Israel). The muscle tissue was dissected from posterior legs and was thoroughly minced. Digestion was performed with Trypsin-EDTA while gentle trituration. After 30 min the supernatant, containing dissociated cells, was collected and a fresh Trypsin-EDTA was added. This procedure was repeated two more times. Then, all supernatants were pooled, centrifuged, and the cell pellet was re-suspended in Proliferation Medium. Cells were seeded in a Gelatin coated 12 wells culture plates, 1×10^5 cells/well containing 1 mL of Proliferation Medium. Two days later, the medium was changed to Fusion Medium, which was then changed twice a week. The cultures were monitored by daily phase contrast microscopic observations from 24 hours after setting the cultures and onward.
Stock solution of 1% porcine gelatin in water, was sterilized by autoclave. Once cooled, 500 μl of the solution were added to each well of the 12-wells culture plat. After incubation for 20 min at room temperature, the excess solution was removed, and the cells were seeded.
For the proliferation stage, cells were cultured in: DMEM/F12 (containing 1 mM Ca^2+) +10% FBS, 25 μg/mL Gentamycin, and 2 mM L-Glutamine.
For the fusion stage the Proliferation Medium was changed with Fusion Medium, which was prepared as following: DMEM/F12 (containing 1 mM Ca2+), 2% horse serum (HS), 2 mM L-Glutamine, 25 μg/mL Gentamycin, and 4 units/100 mL Insulin (all purchased from Biological-Industries, Israel).
Control cultures were grown without further added calcium, or cultures enriched with free (soluble) stabilizer. The experiment was blinded by marking the various calcium preparations with arbitrary numerals only.
The components were added in one of the following ways: (i) aqueous suspensions of dry material; (ii) aqueous suspension of fresh material (before drying), or (iii) dissolved with HCl (to mimic the acidity which exists in the stomach. After dissolving was accomplished, the formed solutions were neutralized with 1M NaOH).

[5] = system: sperm; settings: addition to calcium-free mediums; Bhoumik et al. 2014; cited from earlier work
[6] = Example 15, pooled embryos, 3.3 mM in cleavage media
[7] = Example 17, mouse 1 sibling embryos, 1.7 mM in cleavage media
[8] = Example 13, mice 3-7 pooled embryos, 1.6 mM in cleavage media
[9] = Example 14, pooled embryos, 1.6 mM in cleavage media
[10] = Example 17, mice 3-6 pooled embryos, 1.7 mM in cleavage media
[11] = Example 17, mouse 2 sibling embryos, 1.7 mM in cleavage media
[12] = Example 16, pooled embryos, 1.7 mM in cleavage media

O=C([O-])[O-].[Ca+2] [CCC, crystalline calcium carbonate]
8 cell/d2: number of embryos [1, 6]: 3
Blast/d3: number of embryos [1, 6]: 17
Blast/d3: portion of the initial number of embryos [1, 6]: 100%
Hatch/d4: number of embryos [1, 6]: 14
Hatch/d4: portion of the initial number of embryos [1, 6]: 82.35%
comp/d2: number of embryos [1, 6]: 14
8 cell/d2: number of embryos [1, 7]: 14
Blast/d3: number of embryos [1, 7]: 12
Blast/d4: number of embryos [1, 7]: 5
Hatch/d4: number of embryos [1, 7]: 15
Hatch/d4: portion of the initial number of embryos [1, 7]: 62.5%
comp/d2: number of embryos [1, 7]: 6
degenerative: number of embryos [1, 7]: 1
early Blast/d3: number of embryos [1, 7]: 8
Cultures with axonal regeneration (%) ([2]; calcium preparation at Ca2+ 2 mM): 50%
elevation of CK compared to mdx group on normal diet only (2M) ([3]; by food, diet with 1% elemental calcium (4M: synthetic ACC 5% PS; 3M: synthetic CCC)): not statistically significant
creatinine kinase (CK) in serum ([3]; group 3M: by food, diet with 1% elemental calcium): 21,676±14,508 IU/ml
muscle fibers after 7 days [4]: fewer, thinner and shorter muscle fibers
early formation of many myotubes, time of cultivation ([4]; dry powder suspended in water): later

CC(O)(P(=O)(O)O)P(=O)(O)O [ET, Etidronic Acid]
Cultures with axonal regeneration (%) ([2]; stabilizer alone at 0.05%): 33.3%

polyphosphate [PP]
8 cell/d2: number of embryos [1, 8]: 9
Blast/d3: number of embryos [1, 8]: 20
Blast/d3: portion of the initial number of embryos [1, 8]: 54.1%
Hatch/d4: number of embryos [1, 8]: 17
Hatch/d4: portion of the initial number of embryos [1, 8]: 45.9%
comp/d2: number of embryos [1, 8]: 20
8 cell/d2: number of embryos [1, 9]: 6
Blast/d3: number of embryos [1, 9]: 34
Blast/d3: portion of the initial number of embryos [1, 9]: 94.44%
Hatch/d4: number of embryos [1, 9]: 16
Hatch/d4: portion of the initial number of embryos [1, 9]: 44.44%
comp/d2: number of embryos [1, 9]: 30

[Ca+2] [Ca^2+ ions]
increase of forward sperm motility [5]: up to 20%

O=C([O-])[O-].[Na+].[Na+] [NaCO3, sodium carbonate]
embryonic development compared to control or to the addition of ACC-PP ([1]; Example 17, 1.7 mM in cleavage media): very poor embryonic development
8 cell/d2: number of embryos [1, 10]: 2
Blast/d3: number of embryos [1, 10]: 0
Blast/d4: number of embryos [1, 10]: 0
Hatch/d4: number of embryos [1, 10]: 0 (0)
Hatch/d4: portion of the initial number of embryos [1, 10]: 0 (0) %
comp/d2: number of embryos [1, 10]: 7
degenerative: number of embryos [1, 10]: 1
early Blast/d3: number of embryos [1, 10]: 0
8 cell/d2: number of embryos [1, 11]: 6
Blast/d3: number of embryos [1, 11]: 2
Blast/d4: number of embryos [1, 11]: 0
Hatch/d4: number of embryos [1, 11]: 2
Hatch/d4: portion of the initial number of embryos [1, 11]: 12.5%
comp/d2: number of embryos [1, 11]: 8
degenerative: number of embryos [1, 11]: 2
early Blast/d3: number of embryos [1, 11]: 14

N[C@@H](COP(=O)(O)O)C(=O)O [PS, phosphoserine]
8 cell/d2: number of embryos [1, 12]: 5
Blast/d3: number of embryos [1, 12]: 12
Blast/d3: portion of the initial number of embryos [1, 12]: 92.3%
Hatch/d4: number of embryos [1, 12]: 10
Hatch/d4: portion of the initial number of embryos [1, 12]: 76.9%
comp/d2: number of embryos [1, 12]: 8
Cultures with axonal regeneration (%) ([2]; stabilizer alone at 0.05%): 0%
